Consider 16 molecules from patent US10160762B2, “6-alkyl dihydropyrazolopyrimidinone compounds as PDE2 inhibitors” (Merck Sharp & Dohme Corp., priority 2015, dated 2018).

Usually Ki stands for the equilibrium dissociation constant of an inhibitor or competing ligand from its target.

The assay deals with T1, human PDE2A1 (Homo sapiens, UniProt O00408).
T1 construct: GST; purchased BPS Bioscience (San Diego, Calif.) 60020; host or cells: insect cells
In words: IMAP FP PDE assay, human PDE2A1. Particulars: Lab B; read-out: Human PDE2 Ki (nM) Lab B. The class given is biochemical. The essentials: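 FP (IMAP) read after 60 min room-temperature reaction of insect-cell GST-human PDE2A1 with 50 nM FAM-cAMP plus 1000 nM cGMP (pH 7.2 Tris, Mg2+, DTT). Compounds titrated 3-fold over ten points. Apparent Ki derived assuming KM of 10,000 nM; enzyme at 20% substrate turnover.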

T1 sequence (O00408 1-920 isoform O00408-2): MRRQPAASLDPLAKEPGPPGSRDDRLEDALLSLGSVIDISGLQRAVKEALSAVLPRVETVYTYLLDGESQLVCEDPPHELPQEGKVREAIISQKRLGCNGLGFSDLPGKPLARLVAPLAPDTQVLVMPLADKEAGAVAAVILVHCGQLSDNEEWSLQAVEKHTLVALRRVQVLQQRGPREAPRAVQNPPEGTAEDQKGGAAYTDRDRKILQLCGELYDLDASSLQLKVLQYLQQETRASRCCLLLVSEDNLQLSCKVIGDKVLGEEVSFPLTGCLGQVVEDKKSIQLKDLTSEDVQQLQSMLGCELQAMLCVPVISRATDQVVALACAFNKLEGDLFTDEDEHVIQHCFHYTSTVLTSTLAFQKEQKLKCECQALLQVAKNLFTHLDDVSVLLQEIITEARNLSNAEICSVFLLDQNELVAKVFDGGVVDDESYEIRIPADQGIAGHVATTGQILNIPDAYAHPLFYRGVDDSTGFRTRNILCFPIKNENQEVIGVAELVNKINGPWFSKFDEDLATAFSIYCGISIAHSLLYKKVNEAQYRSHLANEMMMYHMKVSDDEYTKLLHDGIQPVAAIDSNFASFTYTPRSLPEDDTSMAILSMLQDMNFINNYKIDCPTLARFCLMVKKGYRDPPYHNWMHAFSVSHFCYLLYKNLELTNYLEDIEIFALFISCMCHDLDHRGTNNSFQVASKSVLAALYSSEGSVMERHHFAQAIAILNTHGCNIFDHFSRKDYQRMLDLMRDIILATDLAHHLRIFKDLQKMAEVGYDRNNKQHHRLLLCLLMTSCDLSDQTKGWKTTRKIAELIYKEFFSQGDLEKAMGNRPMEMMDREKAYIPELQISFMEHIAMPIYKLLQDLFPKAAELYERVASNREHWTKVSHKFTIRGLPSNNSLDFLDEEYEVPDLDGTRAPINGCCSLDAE

Take `Cc1nc2c(c(CC(F)(F)F)nn2C(c2ccc(C(F)(F)F)cc2)C2(C)CC2)c(=O)[nH]1` (single isomer, unassigned) [Example 59, (S)- or (R)-6-Methyl-1-((1-methylcyclopropyl)(4-(trifluoromethyl)phenyl)methyl)-3-(2,2,2-trifluoroethyl)-1H-pyrazolo[3,4-d]pyrimidin-4(5H)-one]: the Ki was 23 nM.

For `Cc1nc2c(c(CO)nn2C(c2ccc(OC(F)(F)F)cc2)C(C)C)c(=O)[nH]1` (single isomer, unassigned) [Example 85, (S)- or (R)-3-(Hydroxymethyl)-6-methyl-1-(2-methyl-1-(4-(trifluoromethoxy)phenyl)propyl)-1H-pyrazolo[3,4-d]pyrimidin-4(5H)-one], the Ki is 0.89 nM. For the molecule `Cc1nc2c(c(CO)nn2C2(c3ccc(C(F)(F)F)cc3)CCC2)c(=O)[nH]1` [Example 78, 3-(Hydroxymethyl)-6-methyl-1-(1-(4-(trifluoromethyl)phenyl)cyclobutyl)-1H-pyrazolo[3,4-d]pyrimidin-4(5H)-one], the Ki came to 4.9 nM.

For `Cc1nc2c(c(C(F)(F)CO)nn2C(C)c2ccc(C(F)(F)F)cc2)c(=O)[nH]1` (single isomer, unassigned) [Example 255], the Ki came to 1.6 nM. The same measure for `Cc1nc2c(c(CF)nn2C(c2ccc(OC(F)(F)F)cc2)C2CC2)c(=O)[nH]1` (single isomer, unassigned) [Example 224, (R)- or (S)-1-(Cyclopropyl(4-(trifluoromethoxy)phenyl)methyl)-3-(fluoromethyl)-6-methyl-1,5-dihydro-4H-pyrazolo[3,4-d]pyrimidin-4-one]: 0.48 nM; for `Cc1nc2c(c(CC(F)F)nn2C(C)c2ccc(C(F)(F)F)cc2)c(=O)[nH]1` (single isomer, unassigned) [Example 286]: 2 nM. The result for `Cc1nc2c(c(CO)nn2C(c2ccc(C(F)(F)F)c(F)c2)C2CC2)c(=O)[nH]1` (single isomer, unassigned) [Example 90, (R)- or (S)-1-(Cyclopropyl(3-fluoro-4-(trifluoromethyl)phenyl)methyl)-3-(hydroxymethyl)-6-methyl-1H-pyrazolo[3,4-d]pyrimidin-4(5H)-one] reads 78 nM; that for `Cc1nc2c(c(/C=N\O)nn2C(C)c2ccc(C(F)(F)F)cc2)c(=O)[nH]1` (stereo not shown) [Example 251, (Z)-6-Methyl-4-oxo-1-(1-(4-(trifluoromethyl)phenyl)ethyl)-4,5-dihydro-1H-pyrazolo[3,4-d]pyrimidine-3-carbaldehyde oxime], 7.2 nM.

On to `COc1ccc(Cc2nc3c(c(CF)nn3C(C)c3ccc(C(F)(F)F)cc3)c(=O)[nH]2)cc1` (single isomer, unassigned) [Example 219, (S)- or (R)-3-(Fluoromethyl)-6-(4-methoxybenzyl)-1-(1-(4-(trifluoromethyl)phenyl)ethyl)-1H-pyrazolo[3,4-d]pyrimidin-4(5H)-one], for which the Ki turned out to be 0.96 nM. The result for `Cc1nc2c(c(CO)nn2C(c2ccc(C(C)(C)C)cc2)C2CC2)c(=O)[nH]1` (single isomer, unassigned) [Example 88, (R)- or (S)-1-((4-tert-Butylphenyl)(cyclopropyl)methyl)-3-(hydroxymethyl)-6-methyl-1H-pyrazolo[3,4-d]pyrimidin-4(5H)-one] reads 45 nM. Consider `Cc1nc2c(c(CO)nn2C(C)c2ccc(C(F)(F)F)cc2Cl)c(=O)[nH]1` (single isomer, unassigned) [Example 19, (S)- or (R)-1-(1-(2-Chloro-4-(trifluoromethyl)phenyl)ethyl)-3-(hydroxymethyl)-6-methyl-1H-pyrazolo[3,4-d]pyrimidin-4(5H)-one], for which the Ki is 1.8 nM. The result for `Cc1nc2c(c(CO)nn2C(C)c2ccc(S(F)(F)(F)(F)F)cc2)c(=O)[nH]1` (single isomer, unassigned) [Example 77] reads 3.3 nM; that for `Cc1nc2c(c(CO)nn2C(c2ccc(OC(F)(F)F)c(F)c2)C2CC2)c(=O)[nH]1` (single isomer, unassigned) [Example 92, (R)- or (S)-1-(Cyclopropyl(3-fluoro-4-(trifluoromethoxy)phenyl)methyl)-3-(hydroxymethyl)-6-methyl-1H-pyrazolo[3,4-d]pyrimidin-4(5H)-one], 8.3 nM; that for `Cc1nc2c(c(C=O)nn2C(C)c2ccc(C(F)(F)F)cc2)c(=O)[nH]1` (stereo not shown) [Example 248, 6-Methyl-4-oxo-1-(1-(4-(trifluoromethyl)phenyl)ethyl)-4,5-dihydro-1H-pyrazolo[3,4-d]pyrimidine-3-carbaldehyde], 66 nM. In the case of `Cc1nc2c(c(CC(F)F)nn2C(C)c2ccc(C(F)(F)F)cc2)c(=O)[nH]1` (single isomer, unassigned) [Example 285], the Ki amounted to 111 nM. The same measure for `Cc1nc2c(c(C#N)nn2C(C)c2ccc(C(F)(F)F)cc2)c(=O)[nH]1` (single isomer, unassigned) [Example 252]: 16 nM.
